Legend:
PA14 biofilms = experiment: Biofilm assay on glass coverslips, GFP-labelled PA14; type: cell-based, Pseudomonas aeruginosa
Method: (§1) One of the clinical challenges of P. aeruginosa infections is the difficulty associated with the effective treatment of biofilms due to their high resistance to antibiotics. […] The effect of Ia, with or without tobramycin, on PA14 and PAO1-L biofilms grown on glass coverslips, was determined. […] The experiment was performed using green fluorescent labelled (GFP)-labelled PAO1-L and PA14 strains, grown under four different conditions: (i) no treatment (control); (ii) compound Ia at 8 µM in PA14 and 34 µM in PAO1-L (concentrations equal to 3× IC50); (iii) tobramycin at 100 µg/mL; (iv) Ia and tobramycin, at the same concentrations as (ii) and (iii).
(§2) Biofilms were cultivated on borosilicate glass coverslips in petri dishes. P. aeruginosa strains, PAO1-L and PA14, were labelled by transformation with plasmid pMMG, which constitutively expresses GFP from the Ptac promoter. Labelled strains were grown at 37 °C, for 16 h, in 2 mL RPMI-1640 (Lonza, Slough, UK), supplemented with 20 mM D-glucose (Sigma–Aldrich, Dorset, UK) and 2 µM FeCl3 (Sigma–Aldrich, Dorset, UK). Cultures were diluted 1:100 in fresh medium and allowed to grow for a further 4 h, or until an OD600 of 0.5 was reached. The mid-logarithmic cultures were diluted to an OD600 of 0.01 in 25 mL RPMI, supplemented with glucose and FeCl3, and inoculated into petri dishes containing UV sterilised borosilicate glass coverslips (22 × 22 mm, thickness no1) (VWR, Lutterworth, UK). Bacterial cells were seeded at 37 °C under static conditions for 1.5 h, and compound Ia was added to the culture at a concentration of 34 µM for P. aeruginosa PAO1-L and 8 µM for PA14 before dishes were moved to a shaker at 60 rpm and 37 °C for 15 h to form mature biofilms. Tobramycin and propidium iodide were added to the 15 h-old cultures at concentrations of 100 µg/mL and 2 µM, respectively, followed by further incubation for 4 h. Coverslips were examined under a Laser Scanning Fluorescent Microscope (LSM2, Zeiss, Oberkochen, Germany). Biofilms were visualised using egfp mode at an excitation wavelength of 488nm. Imaging was carried out using Zen 2011 imaging software (Zeiss, Oberkochen, Germany). A total of 5 Z-stacked images were collected per coverslip. Sampling was conducted at random from the central portion of each coverslip. Biomass was calculated using Image J (NIH, Bethesda, MD, USA) and Comstat 2.1. Software package (www.comstat.dk, lyngby, Denmark).

PAO1-L biofilms = experiment: Biofilm assay on glass coverslips, GFP-labelled PAO1-L; type: cell-based, Pseudomonas aeruginosa
Method: as §1, §2

[1] = Ia 8 µM, tobramycin 100 µg/mL for 4 h
[2] = Ia 34 µM, tobramycin 100 µg/mL for 4 h

With O=CN1N=C(c2ccccc2)CC1c1cccc(Nc2ccnc3cc(Cl)ccc23)c1 (stereo not drawn) [Ia] the “Sensitisation of biofilm to tobramycin / effect of combined treatment, PA14” value (PA14 biofilms; Ia 8 µM plus tobramycin 100 µg/mL for 4 h) was “sensitized the biofilm to tobramycin”, the “Effect on biofilm biomass, PA14” value (PA14 biofilms; [1]) was “reducing biomass” and the “Effect on cell viability in biofilm (propidium iodide), PA14” value (PA14 biofilms; [1]) was “little impact on cell viability”. The “Sensitisation of biofilm to tobramycin / effect of combined treatment, PAO1-L” value (PAO1-L biofilms; Ia 34 µM plus tobramycin 100 µg/mL for 4 h) was “sensitized the biofilm to tobramycin”, the “Effect on biofilm biomass, PAO1-L” value (PAO1-L biofilms; [2]) was “reducing biomass” and the “Effect on cell viability in biofilm (propidium iodide), PAO1-L” value (PAO1-L biofilms; [2]) was “little impact on cell viability”.
